Measurements taken from patent US9187492B2, “Pyripyropene derivative having ACAT2 inhibiting activity and stable to metabolizing enzymes” (School Juridical Person Kitasato Institute, priority 2010, dated 2015).

Legend:
ACAT2 = molecular target: T1, ACAT2 (Mus musculus, UniProt O88908); assay: Measurement of ACAT2-inhibiting activity (murine hepatic microsome, [14C]cholesteryl oleate formation); assay type: biochemical; details: for IC50: murine hepatic microsome membrane fraction, 5 min at 37° C., read-out: Inhibitory activity (concentration required for 50% inhibition of ACAT 2 = IC50); for Specific activity ((IC50 of the test compound)/(IC50 of PRD 043)): relative to PRD 043, class symbols
T1 construct: The resulting sediment was collected as a microsome fraction; from tissue; host or cells: mouse liver (hepatic microsome membrane fraction)
T1 sequence (O88908 1-525): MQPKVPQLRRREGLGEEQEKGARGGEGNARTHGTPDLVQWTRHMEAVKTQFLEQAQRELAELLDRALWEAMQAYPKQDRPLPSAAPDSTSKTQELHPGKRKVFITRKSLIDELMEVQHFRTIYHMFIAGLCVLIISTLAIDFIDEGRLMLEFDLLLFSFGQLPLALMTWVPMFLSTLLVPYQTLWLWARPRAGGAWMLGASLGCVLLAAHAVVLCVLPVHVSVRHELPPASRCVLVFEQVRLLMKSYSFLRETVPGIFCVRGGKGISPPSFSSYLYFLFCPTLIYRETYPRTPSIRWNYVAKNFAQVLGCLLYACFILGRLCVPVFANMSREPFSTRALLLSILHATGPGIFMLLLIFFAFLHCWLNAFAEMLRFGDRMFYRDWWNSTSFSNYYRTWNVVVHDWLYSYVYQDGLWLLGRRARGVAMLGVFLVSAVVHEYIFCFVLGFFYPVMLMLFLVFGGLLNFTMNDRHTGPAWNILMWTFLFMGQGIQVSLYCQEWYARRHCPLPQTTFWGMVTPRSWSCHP
Experimental: The enzyme source which was used was a membrane fraction derived from murine hepatic microsome. Mouse livers were homogenized in buffer solution A (50 mM Tris HCl solution (pH 7.8), 1 mM ethylene diamine tetraacetate, and 1 mM phenylmethanesulfonyl fluoride) using a Potter-type homogenizer (Tokyo-Riko). The homogenate was centrifuged at 12000×g, and the supernatant was subjected to ultracentrifugation at 100000×g. The resulting sediment was collected as a microsome fraction, and this fraction was adjusted so as to have a protein concentration of 5 mg/mL using buffer solution A.
As a control, 10 μL of methanol were used in place of the pyripyropene derivative.
The chloroform layer was evaporated to dryness and was used to spot a thin layer chromatography plate (silica gel plate, Merck, 0.5 mm thickness). Elution for separation was carried out using hexane/diethyl ether/acetic acid (70:30:1, v/v) as an eluant.
wherein the background is the radioactivity of a thin layer chromatography plate which was not spotted.

[1] = Stability against metabolizing enzymes in the liver (hepatic microsome); details: time until remaining amount reached 50%, 37° C.; for half-life at 6 μg/mL: female, Sprague-Dawley (SD), rat, liver microsomes, pH 7.4, Half-life; for Half-life: female SD rat hepatic microsome, 6 μg/mL, pH 7.4

| Compound | IC50 (ACAT2) | Specific activity ((IC50 of the test compound)/(IC50 of PRD 043)) (ACAT2) | half-life at 6 μg/mL [1] | Half-life [1] |
| --- | --- | --- | --- | --- |
| Cc1cccc([C@@H]2OCC3(C)C4C[C@H](OC(=O)c5ccc(F)cc5)[C@@]5(C)Oc6cc(-c7cccnc7)oc(=O)c6[C@H](O)C5[C@@]4(C)CC[C@@H]3O2)c1 (some centres unmarked) [PRD158, 1,11-O-m-methylbenzylidene-7-O-p-fluorobenzoyl-1,7,11-trideacetylpyripyropene A] | 1 to 10 nM | +++ (10<specific activity≦20) | ≥ 9 h | >9 h |
| CC12CO[C@@H](c3cccc4ccccc34)O[C@H]1CC[C@@]1(C)C2C[C@H](OC(=O)c2ccc(C#N)cc2)[C@@]2(C)Oc3cc(-c4cccnc4)oc(=O)c3[C@H](O)C12 (some centres unmarked) [PRD180, 1,11-O-o-naphthylidene-7-O-p-cyanobenzoyl-1,7,11-trideacetylpyripyropene A] | 1 to 10 nM | +++ (10<specific activity≦20) | ≥ 9 h | >9 h |
| CC(=O)O[C@H]1CC[C@@]2(C)C(C[C@H](OC(=O)c3ccc(C#N)cc3)[C@@]3(C)Oc4cc(-c5cccnc5)oc(=O)c4[C@H](O)C23)C1(C)C(=O)O (some centres unmarked) [PRD069, 7-O-p-cyanobenzoyl-11-deacetoxymethyl-7-deacetyl-11-carboxy-pyripyropene A] | < 0.5 nM | ++++ (20<specific activity) | ≥ 9 h | >9 h |
| COc1ccccc1[C@@H]1OCC2(C)C3C[C@H](OC(=O)c4ccc(F)cc4)[C@@]4(C)Oc5cc(-c6cccnc6)oc(=O)c5[C@H](O)C4[C@@]3(C)CC[C@@H]2O1 (some centres unmarked) [PRD162, 1,11-O-o-methoxybenzylidene-7-O-p-fluorobenzoyl-1,7,11-trideacetylpyripyropene A] | 1 to 10 nM | +++ (10<specific activity≦20) | ≥ 9 h | >9 h |
| CC12CO[C@@H](c3ccccc3)O[C@H]1CC[C@@]1(C)C2C[C@H](OC(=O)c2ccccc2)[C@@]2(C)Oc3cc(-c4cccnc4)oc(=O)c3[C@H](O)C12 (some centres unmarked) [PRD122, 1,11-O-benzylidene-7-O-benzoyl-1,7,11-trideacetylpyripyropene A] | 0.5 to 1 nM | +++ (10<specific activity≦20) | ≥ 9 h | >9 h |
| CC(=O)O[C@H]1CC[C@@]2(C)C(C[C@H](OC(=O)c3ccc(C#N)cc3)[C@@]3(C)Oc4cc(-c5cccnc5)oc(=O)c4[C@H](O)C23)C1(C)COC(=O)c1ccccc1 (some centres unmarked) [PRD143, 7-O-p-cyanobenzoyl-7,11-dideacetyl-11-O-benzoylpyripyropene A] | 0.5 to 1 nM | +++ (10<specific activity≦20) | ≥ 9 h | >9 h |
| CC(C)C(=O)OCC1(C)C2C[C@H](OC(=O)C3CCCCC3)[C@@]3(C)Oc4cc(-c5cccnc5)oc(=O)c4[C@H](O)C3[C@@]2(C)CC[C@@H]1OC(=O)C(C)C (some centres unmarked) [PRD074, 7-O-cyclohexanecarbonyl-1,11-O-diisobutyryl-1,7,11-trideacetylpyripyropene A] | 0.5 to 1 nM | +++ (10<specific activity≦20) | ≥ 9 h | >9 h |

Other lines, results leading:

| IC50 (ACAT2) | Specific activity ((IC50 of the test compound)/(IC50 of PRD 043)) (ACAT2) | half-life at 6 μg/mL [1] | Half-life [1] | Compound |
| --- | --- | --- | --- | --- |
| 0.5 to 1 nM | +++ (10<specific activity≦20) | ≥ 9 h | >9 h | Cc1ccc([C@@H]2OCC3(C)C4C[C@H](OC(=O)c5ccc(C#N)cc5)[C@@]5(C)Oc6cc(-c7cccnc7)oc(=O)c6[C@H](O)C5[C@@]4(C)CC[C@@H]3O2)cc1 (some centres unmarked) [PRD126, 1,11-O-p-methylbenzylidene-7-O-p-cyanobenzoyl-1,7,11-trideacetylpyripyropene A] |
| 0.5 to 1 nM | +++ (10<specific activity≦20) | > 9 h | – | CC12CO[C@@H](c3ccccc3)O[C@H]1CC[C@@]1(C)C2C[C@H](OC(=O)C2CCCCC2)[C@@]2(C)Oc3cc(-c4cccnc4)oc(=O)c3[C@H](O)C12 (some centres unmarked) [PRD080, 1,11-O-benzylidene-7-O-cyclohexanecarbonyl-1,7,11-trideacetylpyripyropene A] |
| 0.5 to 1 nM | ++++ (20<specific activity) | ≥ 9 h | >9 h | CC(=O)OCC1(C)C2C[C@H](OC(=O)c3ccc(C#N)cc3)[C@@]3(C)Oc4cc(-c5cccnc5)oc(=O)c4[C@H](O)C3[C@@]2(C)CC[C@@H]1OC(=O)C(C)C (some centres unmarked) [PRD119, 7-O-p-cyanobenzoyl-1,7-dideacetyl-1-O-isobutyrylpyripyropene A] |
| 0.5 to 1 nM | +++ (10<specific activity≦20) | ≥ 9 h | >9 h | Cc1cccc(C)c1[C@@H]1OCC2(C)C3C[C@H](OC(=O)c4ccc(C#N)cc4)[C@@]4(C)Oc5cc(-c6cccnc6)oc(=O)c5[C@H](O)C4[C@@]3(C)CC[C@@H]2O1 (some centres unmarked) [PRD181, 1,11-O-o,o-dimethylbenzylidene-7-O-p-cyanobenzoyl-1,7,11-trideacetylpyripyropene A] |
| 0.5 to 1 nM | +++ (10<specific activity≦20) | ≥ 9 h | >9 h | CC12CO[C@@H](c3ccccc3F)O[C@H]1CC[C@@]1(C)C2C[C@H](OC(=O)c2ccc(F)cc2)[C@@]2(C)Oc3cc(-c4cccnc4)oc(=O)c3[C@H](O)C12 (some centres unmarked) [PRD164, 1,11-O-o-fluorobenzylidene-7-O-p-fluorobenzoyl-1,7,11-trideacetylpyripyropene A] |
| 0.5 to 1 nM | +++ (10<specific activity≦20) | ≥ 9 h | >9 h | CC1(COC(=O)c2ccccc2)C2C[C@H](OC(=O)c3ccc(C#N)cc3)[C@@]3(C)Oc4cc(-c5cccnc5)oc(=O)c4[C@H](O)C3[C@@]2(C)CC[C@@H]1OC(=O)c1ccccc1 (some centres unmarked) [PRD166, 7-O-p-cyanobenzoyl-1,11-O-dibenzoyl-1,7,11-trideacetylpyripyropene A] |
| 0.5 to 1 nM | +++ (10<specific activity≦20) | ≥ 9 h | >9 h | CC12CO[C@@H](c3ccccc3F)O[C@H]1CC[C@@]1(C)C2C[C@H](OC(=O)c2ccc(C#N)cc2)[C@@]2(C)Oc3cc(-c4cccnc4)oc(=O)c3[C@H](O)C12 (some centres unmarked) [PRD163, 1,11-O-o-fluorobenzylidene-7-O-p-cyanobenzoyl-1,7,11-trideacetylpyripyropene A] |
| 0.5 to 1 nM | +++ (10<specific activity≦20) | ≥ 9 h | >9 h | Cc1ccc([C@@H]2OCC3(C)C4C[C@H](OC(=O)c5ccc(C#N)cc5)[C@@]5(C)Oc6cc(-c7cccnc7)oc(=O)c6[C@H](O)C5[C@@]4(C)CC[C@@H]3O2)c(C)c1 (some centres unmarked) [PRD159, 1,11-O-o,p-dimethylbenzylidene-7-O-p-cyanobenzoyl-1,7,11-trideacetylpyripyropene A] |
| 0.5 to 1 nM | +++ (10<specific activity≦20) | ≥ 9 h | >9 h | COc1ccccc1[C@@H]1OCC2(C)C3C[C@H](OC(=O)c4ccc(C#N)cc4)[C@@]4(C)Oc5cc(-c6cccnc6)oc(=O)c5[C@H](O)C4[C@@]3(C)CC[C@@H]2O1 (some centres unmarked) [PRD161, 1,11-O-o-methoxybenzylidene-7-O-p-cyanobenzoyl-1,7,11-trideacetylpyripyropene A] |
| 0.5 to 1 nM | +++ (10<specific activity≦20) | ≥ 9 h | >9 h | Cc1ccccc1[C@@H]1OCC2(C)C3C[C@H](OC(=O)c4ccc(C#N)cc4)[C@@]4(C)Oc5cc(-c6cccnc6)oc(=O)c5[C@H](O)C4[C@@]3(C)CC[C@@H]2O1 (some centres unmarked) [PRD125, 1,11-O-o-methylbenzylidene-7-O-p-cyanobenzoyl-1,7,11-trideacetylpyripyropene A] |
| 0.5 to 1 nM | +++ (10<specific activity≦20) | ≥ 9 h | >9 h | COc1ccc(C(OC)O[C@H]2CC3C4(C)CO[C@@H](c5ccccc5)O[C@H]4CC[C@]3(C)C3[C@@H](O)c4c(cc(-c5cccnc5)oc4=O)O[C@@]32C)cc1 (some centres unmarked) [PRD073, 1,11-O-benzylidene-1,7,11-trideacetyl-7-O-(1-methoxy-1-p-methoxyphenyl)methylpyripyropene A] |
